From PubChem BioAssay (NCI)
Values joined by “and” are separate entries in the source; they are usually repeats but may differ in a detail not shown here. Equal entries are not always repeated.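 Compound exposure: 48 hours, 5 concentrations, 96-well plates. At the GI50, growth is halved. TGI: concentration producing complete growth inhibition.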

Tests used:
Test in all cases: growth of human tumour cells (NCI), 48 h
[1] = system: SR leukemia
[2] = system: K-562 leukemia
[3] = system: NCI/ADR-RES ovarian
[4] = system: DU-145 prostate
[5] = system: PC-3 prostate
[6] = system: NCI-H522 lung
[7] = system: A498 renal
[8] = system: M14 melanoma
[9] = system: SNB-78 CNS
[10] = system: KM20L2 colon

Compound	TGI [1]	TGI [2]	TGI [3]	TGI [4]	TGI [5]	TGI [6]	TGI [7]	TGI [8]	TGI [9]	TGI [10]	GI50 [1] [nM]	GI50 [2] [nM]	GI50 [3] [µM]	GI50 [4] [µM]	GI50 [5] [µM]	GI50 [6] [nM]	GI50 [7] [nM]	GI50 [8] [nM]
O=C(CC(O)c1cccnc1)CC(O)c1cccnc1 (centres undefined)	> 100 µM	> 51.5 µM	> 66.1 µM	> 89.7 µM	42.9 µM	32.1 µM	30.6 µM	27.8 µM	–	–	–	–	–	–	–	–	–	–
N#CC1=C(c2ccccc2)NN(Cc2ccccc2)C(c2ccc(Cl)cc2)CC1=O (centres undefined)	> 100 µM	–	–	–	–	38.5 µM	> 100 µM	–	> 100 µM	75.8 µM	–	–	–	–	–	–	–	–
CCOc1cccc2sc(N)nc12	–	> 100 µM	–	–	–	> 100 µM	> 100 µM	> 100 µM	> 100 µM	> 100 µM	–	–	–	–	–	–	–	–
Cc1cc(NCCCNc2ccnc3cc(Cl)ccc23)nc(Nc2ccc(C(=O)N3CCCCC3)cc2)n1	4.24 µM	6.4 µM	35.9 µM	13.1 µM	14.4 µM	4.45 µM	5.07 µM	4.06 µM	–	–	1720	1980	14.9	3.42	3.9	2190	1890	2120
CN1C(=O)C(C)(C)NS1(=O)=O	–	> 100 µM	–	–	–	–	> 100 µM	> 100 µM	> 100 µM	> 100 µM	–	–	–	–	–	–	–	–
CC[C@]12C=CCN3CC[C@@]4(c5ccc(OC)cc5N(C)[C@H]4[C@@](O)(C(=O)OC)[C@@H]1OC(=O)CCCC[P+](c1ccccc1)(c1ccccc1)c1ccccc1)[C@@H]32	4.14 µM	11.4 µM	> 100 µM	13.2 µM	7.77 µM	1.77 µM	10.4 µM	4.13 µM	–	–	446	789	> 100	0.875	0.391	295	2840	1450
CS(=O)(=O)OCCCCOS(C)(=O)=O	223 µM and > 1000 µM	223 µM and > 1000 µM	250 µM and > 1000 µM	250 µM and > 1000 µM	250 µM and > 1000 µM	250 µM and > 1000 µM	249 µM and > 1000 µM	250 µM and > 1000 µM	233 µM	> 235 µM	100000	795000	> 1000	774	> 1000	466000	> 883000	765000
CO[C@H](C(=O)O[C@H]1C(=O)N2CCC3CCC1C32C)c1ccccc1 (some centres undefined)	> 100 µM	> 100 µM	–	–	–	> 100 µM	–	> 100 µM	> 100 µM	> 100 µM	–	–	–	–	–	–	–	–
CC(C)COC(=O)N1N=NC2C3CC(=O)C(O3)C21 (centres undefined)	> 100 µM	> 100 µM	–	–	–	> 100 µM	> 100 µM	> 100 µM	> 100 µM	> 100 µM	–	–	–	–	–	–	–	–
O=c1ncc(I)c[nH]1	> 100 µM	> 100 µM	> 100 µM	> 100 µM	> 100 µM	> 100 µM	> 100 µM	> 100 µM	–	–	> 100000	> 100000	> 100	> 100	> 100	> 100000	> 100000	> 100000
O=c1/c(=C/c2ccccc2O)sc2nc3ccccc3n12	61.3 µM	99.5 µM	–	–	–	–	> 100 µM	> 100 µM	> 100 µM	> 100 µM	–	–	–	–	–	–	–	–
C/C(=N\NC(=O)C[n+]1ccccc1)c1sc(-c2nc(C)c(/C(C)=N/NC(=O)C[n+]3ccccc3)s2)nc1C	–	> 100 µM	–	–	–	–	> 100 µM	> 100 µM	> 100 µM	> 100 µM	–	–	–	–	–	–	–	–
CC(=O)O[C@H]1CC[C@@]2(C)C(=CC[C@@H]3C2CC[C@]2(C)C(=O)NC(=O)CC32)C1 (some centres undefined)	–	> 100 µM	–	–	–	86.2 µM	> 100 µM	> 100 µM	> 100 µM	> 100 µM	–	–	–	–	–	–	–	–
COC1=CC(=O)c2c(O)c3c(c(O)c2C1=O)OC1(Oc2c(cc4cc(C)oc(=O)c4c2O)CC1O)C3O (centres undefined)	> 100 µM	> 100 µM	> 100 µM	> 100 µM	> 100 µM	54.6 µM	> 100 µM	> 100 µM	–	–	–	–	–	–	–	–	–	–
Cc1cc(C)nc(NS(=O)(=O)c2ccc(Nc3nc4nc(NCc5ccccc5)nc(-c5ccc(O)cc5)c4c(=O)[nH]3)cc2)n1	81.3 µM	> 100 µM	> 100 µM	> 100 µM	> 100 µM	22.8 µM	> 100 µM	> 100 µM	–	–	17900	4840	> 100	25.9	19.8	2610	24500	37500
COc1cccc(-c2cc(=O)c3cc(C)c(C)c(C(=O)O)c3o2)c1	–	> 100 µM	–	–	–	> 100 µM	> 100 µM	> 100 µM	> 100 µM	> 100 µM	–	–	–	–	–	–	–	–
CCN(CC)c1ccc(CNc2cc(C)nc3ccc(OC)cc23)cc1	4.56 µM	4.34 µM	14.3 µM	18.6 µM	13.1 µM	3.28 µM	10.1 µM	3.7 µM	–	–	1870	1370	3.08	6.17	2.82	1510	2240	1890
CC1OC(OC23C(=O)CC(C)(O)CC2(O)C=CC2=C3C(=O)c3ccc(C4CC(OC5CCC(OC6CC(O)C(O)C(C)O6)C(C)O5)C(O)C(C)O4)c(O)c3C2=O)CCC1O (centres undefined)	> 100 µM	> 100 µM	–	–	–	3.83 µM and 3.5 µM	–	32.3 µM and 26.7 µM	35.2 µM and 34.4 µM	36.3 µM and 34.5 µM	–	–	–	–	–	–	–	–
C=CCNC(=O)ON1C(=O)CCC1=O	–	> 100 µM	–	–	–	> 100 µM	> 100 µM	> 100 µM	> 100 µM	> 100 µM	–	–	–	–	–	–	–	–
COc1ccc(-c2c(-c3cc4c(c(OC)c3OC)OCO4)noc2N)cc1	69.8 µM	> 100 µM	0.741 µM	> 100 µM	> 100 µM	0.432 µM	> 100 µM	3.24 µM	–	–	37.6	68.8	0.131	0.502	0.321	81	374	231
